GI50 and TGI data for 8 molecules are collected here from PubChem BioAssay (NCI).

Each structure is given as a SMILES string. Values joined by “and” are separate entries in the source; they are usually repeats but may differ in a detail not shown here. Equal entries are not always repeated.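 Method: 48-hour compound exposure of cells in 96-well plates, five concentrations, linear interpolation of endpoints. Abbreviation: GI50, concentration required for 50% inhibition of growth. TGI denotes the concentration required for complete inhibition of growth.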

Among the test systems are MDA-MB-231 breast; A498 renal; HCT-116 colon; NCI-H226 lung; BT-549 breast; OVCAR-5 ovarian; M14 melanoma; MDA-MB-435; HL-60(TB) leukemia; UACC-257 melanoma.
Common to all, as to assay: inhibition of tumour cell growth, NCI panel, 48 h

As for `COc1cc(-c2oc(=O)ccc2C#Cc2ccccn2)cc(OC)c1OC`, the GI50 is 3.57 µM in the test on MDA-MB-231 breast; 3.81 µM with A498 renal; 2.75 µM with HCT-116 colon; 7.76 µM in the test on NCI-H226 lung; 4.42 µM with BT-549 breast; 10.5 µM in the test on OVCAR-5 ovarian. Moreover, the GI50 was 2.74 µM in the test on M14 melanoma, 0.171 µM in the test with MDA-MB-435, 2.14 µM in the test on HL-60(TB) leukemia and 4.12 µM in the test on UACC-257 melanoma. The TGI is over 72.4 µM in the test on MDA-MB-231 breast; over 48.3 µM in the test with A498 renal; over 100 µM in the test on HCT-116 colon; over 100 µM in the test with NCI-H226 lung; over 100 µM with BT-549 breast; over 100 µM in the test on OVCAR-5 ovarian. Besides, the TGI in the test with M14 melanoma was over 32.4 µM; in the test on MDA-MB-435, 0.932 µM; in the test on HL-60(TB) leukemia, 6.4 µM; with UACC-257 melanoma, over 61.8 µM.
In the case of `Cn1c(I)c(C#CCO[Si](C)(C)C(C)(C)C)c(=O)[nH]c1=O`, the GI50 was 17.3 µM in the test on MDA-MB-231 breast; 19.9 µM in the test on A498 renal; 14.3 µM with HCT-116 colon; 17.1 µM with NCI-H226 lung; 16.4 µM in the test on BT-549 breast; 18 µM in the test with OVCAR-5 ovarian. In addition, the GI50 was 14 µM with M14 melanoma, 13.9 µM in the test on MDA-MB-435, 2.43 µM with HL-60(TB) leukemia and 12.9 µM in the test with UACC-257 melanoma. In addition, the TGI in the test on MDA-MB-231 breast came to 33.1 µM; with A498 renal, 38 µM; in the test with HCT-116 colon, 28.5 µM; in the test on NCI-H226 lung, 32.7 µM; with BT-549 breast, 30.3 µM; in the test with OVCAR-5 ovarian, 33 µM. Moreover, the TGI with M14 melanoma is 28.7 µM; in the test on MDA-MB-435 it was 27.8 µM; in the test with HL-60(TB) leukemia, 4.83 µM; in the test with UACC-257 melanoma it was 27.3 µM.
In the case of `CCN(CC)CCC(CNc1ccnc2cc(Cl)ccc12)c1ccc(Cl)cc1` (stereo not given), the GI50 in the test with MDA-MB-231 breast was 1.28 µM; in the test with A498 renal it was 1.21 µM; with HCT-116 colon it was 1.01 µM; in the test with NCI-H226 lung, 2.46 µM; with BT-549 breast, 1.73 µM; in the test with OVCAR-5 ovarian, 3.01 µM. The GI50 was 0.211 µM in the test with M14 melanoma, 0.402 µM in the test with MDA-MB-435, 1.34 µM with HL-60(TB) leukemia and 1.02 µM with UACC-257 melanoma. Also, the TGI with MDA-MB-231 breast came to 3.21 µM; with A498 renal, 2.76 µM; in the test with HCT-116 colon, 2.32 µM; in the test on NCI-H226 lung, 8.19 µM; in the test with BT-549 breast, 3.4 µM; in the test with OVCAR-5 ovarian, 11.2 µM. Further, the TGI was found to be 0.47 µM with M14 melanoma, 1.65 µM with MDA-MB-435, 3.94 µM in the test on HL-60(TB) leukemia and 2.37 µM in the test on UACC-257 melanoma.
`C=C1C(=O)OC2CC(C)C(C(CC(C)=O)OC(C)=O)=CCC12` (stereo not given): the TGI is 27.2 µM with MDA-MB-231 breast; 39.4 µM with A498 renal; 4.21 µM in the test on HCT-116 colon; over 66.4 µM with NCI-H226 lung; 15.2 µM in the test with BT-549 breast; 31.6 µM in the test on OVCAR-5 ovarian. The TGI in the test on M14 melanoma was 36.9 µM; with MDA-MB-435, 33 µM; with HL-60(TB) leukemia, over 29.3 µM; with UACC-257 melanoma it was 37.4 µM.
`Oc1ccc(Nc2ncnc3c2sc2ncccc23)cc1`: the GI50 in the test with MDA-MB-231 breast is over 100 µM; in the test on A498 renal, 0.0236 µM; in the test on HCT-116 colon it was under 0.01 µM; with NCI-H226 lung, 0.352 µM; in the test on BT-549 breast, 0.0389 µM; in the test with OVCAR-5 ovarian, 0.0831 µM. Further, the GI50 in the test with M14 melanoma is 0.012 µM; in the test on MDA-MB-435, 0.0403 µM; with HL-60(TB) leukemia, 0.0288 µM; in the test on UACC-257 melanoma it was 0.0726 µM. The TGI with MDA-MB-231 breast is over 100 µM; in the test on A498 renal it was 1.93 µM; in the test with HCT-116 colon, over 100 µM; in the test with NCI-H226 lung, over 100 µM; in the test on BT-549 breast, over 100 µM; in the test with OVCAR-5 ovarian, over 100 µM. In addition, the TGI was 0.0551 µM with M14 melanoma, over 100 µM in the test with MDA-MB-435, over 56.5 µM in the test with HL-60(TB) leukemia and over 100 µM in the test with UACC-257 melanoma.
As to `NC(N)=N/N=C/c1c(-c2ccsc2)nc2sccn12`, the GI50 is 16.6 µM with MDA-MB-231 breast; 17.5 µM with A498 renal; 13.7 µM with HCT-116 colon; 16.4 µM with NCI-H226 lung; 22.3 µM in the test on BT-549 breast; 16.6 µM with OVCAR-5 ovarian. The GI50 was 18.5 µM in the test on M14 melanoma, 14.6 µM with MDA-MB-435, 16.3 µM with HL-60(TB) leukemia and 22.3 µM in the test with UACC-257 melanoma. The TGI with MDA-MB-231 breast came to 30.9 µM; in the test with A498 renal, 31.8 µM; with HCT-116 colon, 27.2 µM; with NCI-H226 lung it was 31.2 µM; in the test on BT-549 breast, 38.1 µM; in the test with OVCAR-5 ovarian, 30.3 µM. Also, the TGI worked out at 32.4 µM with M14 melanoma, 27.7 µM with MDA-MB-435, 56.4 µM with HL-60(TB) leukemia and 41.1 µM in the test with UACC-257 melanoma.
In the case of `COC(=O)c1ccc2c(c1)nc(NC(=O)c1ccccc1)n2CCCc1ccccc1`, the GI50 with MDA-MB-231 breast is 6.26 µM; in the test with A498 renal, 16 µM; in the test on HCT-116 colon, 3.06 µM; in the test on NCI-H226 lung, 11.2 µM; in the test with BT-549 breast, 3.33 µM; in the test with OVCAR-5 ovarian, 22.6 µM. For the same molecule, the GI50 in the test on M14 melanoma was 2.28 µM; with MDA-MB-435, 3.4 µM; with HL-60(TB) leukemia it was 4.5 µM; in the test with UACC-257 melanoma it was 6.85 µM. Also, the TGI in the test with MDA-MB-231 breast, in the test on A498 renal, in the test with HCT-116 colon, in the test on NCI-H226 lung, with BT-549 breast and in the test on OVCAR-5 ovarian was over 100 µM throughout. In addition, the TGI in the test on M14 melanoma, in the test with MDA-MB-435, in the test with HL-60(TB) leukemia and with UACC-257 melanoma was over 100 µM each time.
In the case of `COc1cccc2c1C(=O)c1c(O)c3c(c(O)c1C2=O)C[C@@](O)(C(=O)CO)C[C@@H]3OC1CC(N)CC(C)O1` (stereo not given in full), the GI50 in the test on MDA-MB-231 breast was 0.232 µM; in the test with A498 renal, 0.111 µM and 0.0375 µM; in the test with HCT-116 colon it was 0.0155 µM and 0.0431 µM; with NCI-H226 lung, 0.00987 µM and 0.0723 µM and 0.0435 µM; with BT-549 breast it was 0.106 µM; with OVCAR-5 ovarian, 0.116 µM. The GI50 in the test with M14 melanoma is 0.036 µM; in the test on MDA-MB-435, 0.131 µM and 0.0327 µM; in the test on HL-60(TB) leukemia, 0.0091 µM and 0.00929 µM and 0.0412 µM; with UACC-257 melanoma, 0.103 µM. The TGI with MDA-MB-231 breast is 0.675 µM and 0.78 µM; in the test on A498 renal, 0.366 µM and 0.165 µM; with HCT-116 colon, 0.79 µM and 0.33 µM; in the test with NCI-H226 lung, 0.282 µM and 0.132 µM; in the test on BT-549 breast, 0.46 µM and 0.215 µM; in the test on OVCAR-5 ovarian it was 0.775 µM and 0.799 µM. The TGI in the test on M14 melanoma is 0.278 µM and 0.218 µM; in the test with MDA-MB-435, 0.283 µM and 0.156 µM; in the test on HL-60(TB) leukemia, 0.122 µM and 0.939 µM; with UACC-257 melanoma, 0.33 µM and 0.195 µM.
